Assay results reported in patent US9439968B2, “Amine-containing lipidoids and uses thereof” (Massachusetts Institute of Technology, priority 2012, dated 2016).

Assays:
Factor VII = assay: In vivo Factor VII gene silencing in mouse hepatocytes; parameters: species or system mice; details: for Relative FVII Activity: tail vein, serum two days post-injection
[1] = test system: HeLa cells stably modified to express both firefly and Renilla luciferase; assay: In vitro transfection of HeLa cells with lipid nanoparticles (firefly luciferase silencing); format: cell-based; details: 40 nM anti-firefly luciferase siRNA formulated with lipidoid; firefly normalized to Renilla; crude lipidoids
CD45 = assay: In vivo CD45 silencing in leukocyte populations; details: peritoneal cavity and spleen, three days post intravenous delivery
[2] = Histology (H&E) of liver, spleen, kidneys and pancreas; format: in vivo, mice; details: for dose at which liver necrosis was observed: single-dose studies (0-10 mg/kg)
Method: Organs were harvested from animals that had received various doses of either 304O13 or C12-200 lipid nanoparticles (C12-200 is a control non-degradable lipidoid shown below). Organs were fixed overnight in 4% paraformaldehyde and transferred to 70% ethanol prior to paraffin embedding, sectioning, and H & E staining.
Histological analysis was performed through H&E staining on sections from the liver, spleen, kidneys and pancreas. […] Pancreatic inflammation and islet cell enlargement were detected at C12-200 doses ≧2 mg/kg. […] Multi-dose studies were also conducted in which mice received four injections of 0.3, 1, 2, 3, or 5 mg/kg, once per week for four weeks. […] There was no sign of liver toxicity in any of the 304O13 groups up to 5 mg/kg.

Lipidoid hydrolysis = format: physicochemical; details: 6 N HCl reflux 24 h; KOH in EtOH/H2O reflux 41 h
Method: To a 25 ml round bottom flask was added 304O13 (0.250 g, 0.263 mmol, 1 equiv). For acidic hydrolysis, 10 ml of a solution of 6 N HCl was added to the flask to afford a cloudy heterogeneous solution. The reaction was heated to reflux to afford a clear, homogeneous solution and was stirred at reflux for 24 hours. For basic hydrolysis, 10 ml of a solution of KOH in EtOH/H2O (solution=5.61 g KOH in 47.5 ml EtOH w/2.5 ml distilled H2O) was added to the flask to afford a clear colorless solution. The reaction was heated to reflux and stirred for 41 h. […] Reactions were concentrated to dryness under reduced pressure and diluted with CDCl3. The basic reaction was filtered to remove excess KOH. Proton NMR analysis was performed in CDCl3. Proton nuclear magnetic resonance spectra were recorded with a Bruker Avance 400 spectrometer, are depicted in parts per million on the δ scale, and are referenced from the residual protium in the NMR solvent (CDCl3: δ 7.26 (CHCl3).
The acrylate-based lipidoids provided herein also contain hydrolysable ester moieties, functional groups which are commonly incorporated into delivery vehicles to promote physiological degradation (Staubli, A., Ron, E. & Langer, R. J. Am. Chem. Soc. 112, 4419-4424 (1990); van Dijkhuizen-Radersma, et al. Biomaterials 23, 4719-4729 (2002); Geng, Y. & Discher, D. E. J. Am. Chem. Soc. 127, 12780-12781 (2005)).

[3] = Biodistribution of Cy5.5-labeled siRNA (IVIS, Odyssey, confocal); details: liver harvested one hour post-injection
[4] = Nanoparticle characterization; format: physicochemical
Serum clinical chemistry = format: in vivo, mice; details: 72 hours after single 3 mg/kg dose or four once weekly 3 mg/kg doses
Method: The mice had been injected with either a single 3 mg/kg dose of total siRNA or four 3 mg/kg doses (1× per week for four weeks). Blood was drawn for analysis 72 hours post-final injection. There were no statistically significant changes in any of the clinical chemistry parameters for any of the treated groups compared to controls (as evaluated by a student t-test). Error bars represent standard deviation (n=3-5).
(§1) Post-sacrifice, cardiac sticks were immediately performed on animals that had been dosed with either 304O13 or C12-200 lipid nanoparticles. Blood was centrifuged in serum separator tubes at 5,000 rpm for 10 minutes, and serum was analyzed for various hematological parameters. Serum chemistry was evaluated on a Beckman Olympus AU400 Serum Chemistry Analyzer. Cytokines were analyzed using Bio-Plex Pro Mouse Cytokine 23-Plex Assay kits (Luminex Corporation, Austin, Tex.) on the Bio-Plex 200 system, according to manufacturer instructions.
A preliminary safety assessment was conducted on the lead LNP, 304O13, and it was compared to another previously-discovered LNP formulation, C12-200 (Love, K. T. et al. Lipid-like materials for low-dose, in vivo gene silencing. PNAS 107, 1864-1869 (2010)). […] Serum cytokine levels for both materials were assessed in mice four hours after a 3 mg/kg IV bolus injection (total siRNA). […]

Serum cytokine profiling = format: in vivo, mice; details: four hours after 3 mg/kg IV bolus (total siRNA)
Method: as §1
Cytokine analysis was done by injecting either 304O13 or C12-200 nanoparticles at an siRNA dose of 3 mg/kg. Four hours post-injection, blood was harvested via cardiac stick and serum was isolated. Cytokine levels were quantified using an ELISA assay.
A preliminary safety assessment was conducted on the lead LNP, 304O13, and it was compared to another previously-discovered LNP formulation, C12-200 (Love, K. T. et al. Lipid-like materials for low-dose, in vivo gene silencing. PNAS 107, 1864-1869 (2010)). […] Serum cytokine levels for both materials were assessed in mice four hours after a 3 mg/kg IV bolus injection (total siRNA). […] Clinical chemistry parameters were evaluated for both materials 72 hours after a single dose of 3 mg/kg and after four once weekly doses of 3 mg/kg each.

[5] = multi-dose, four injections once per week for four weeks

For `CCCCCCCCCCCCCOC(=O)CCN(C)CCCN(CC)CCCN(C)CCC(=O)OCCCCCCCCCCCCC` [Lipidoid 218O13], the “Relative FVII Activity” value (Factor VII; 5 mg/kg siRNA) was 0.73 and the “Relative Luciferase Activity” value [1] was 0.41.

For `CCCCCCCCCCCCOC(=O)CCN(CCC(=O)OCCCCCCCCCCCC)CC1(C)CC(N(CCC(=O)OCCCCCCCCCCCC)CCC(=O)OCCCCCCCCCCCC)CC(C)(C)C1` (stereo not shown) [Lipidoid 315O12], the “Relative FVII Activity” value (Factor VII; 5 mg/kg siRNA) was 0.99, the “Relative Luciferase Activity” value [1] was 0.30 and the “CD45 silencing in immune cells” value (CD45) was “modest CD45 silencing”.

With `CCCCCCCCCCCCCOC(=O)CCN(CCC(=O)OCCCCCCCCCCCCC)CC1CCCN1C` (stereo not shown) [Lipidoid 232O13] the “Relative Luciferase Activity” value [1] was 0.39.

For `CCCCCCCCCCCCCOC(=O)CCN(CCC(=O)OCCCCCCCCCCCCC)CCN(CCC(=O)OCCCCCCCCCCCCC)CCN(CC)CC` [Lipidoid 123O13], the “Relative FVII Activity” value (Factor VII; 0.1 mg/kg siRNA) was 0.86, the “Relative FVII Activity” value (Factor VII; 0.5 mg/kg siRNA) was 0.50 and the “Relative FVII Activity” value (Factor VII; 2 mg/kg siRNA) was 0.00. For the same compound, the “Relative FVII Activity” value (Factor VII; 5 mg/kg siRNA) was 0.00 and the “Relative Luciferase Activity” value [1] was 0.22.

In the case of `CCCCCCCCCCCCCOC(=O)CCN(CCC(=O)OCCCCCCCCCCCCC)CCN(C)CCCN(C)CCN(CCC(=O)OCCCCCCCCCCCCC)CCC(=O)OCCCCCCCCCCCCC` [Lipidoid 503O13], the “FVII knockdown with control (non-targeting) siRNA” value (Factor VII; LNP encapsulating control siRNA) is reported as “did not result in FVII knockdown” and the “Relative Luciferase Activity” value [1] is reported as 0.07.

In the case of `CCCCCCCCCCCCCOC(=O)CCN(C)CCN(CCN(C)CCC(=O)OCCCCCCCCCCCCC)CCN(C)CCC(=O)OCCCCCCCCCCCCC` [Lipidoid 304O13], the “Relative FVII Activity” value (Factor VII; 0.1 mg/kg siRNA) is reported as 0.54, the “Relative FVII Activity” value (Factor VII; 0.5 mg/kg siRNA) is reported as 0.23 and the “Relative FVII Activity” value (Factor VII; 2 mg/kg siRNA) is reported as 0.02. For the same compound, the “Relative FVII Activity” value (Factor VII; 5 mg/kg siRNA) was 0.01, the “time for Factor VII levels to return to baseline” value (Factor VII; optimized 304O13, single injection at 0.1 mg/kg) was at most 18 days and the “doses with no sign of liver toxicity” value [2, 5] was “up to 5 mg/kg”. The “dose at which a small amount of apoptosis in splenic red pulp was observed” value ([2]; single-dose studies) was 10 mg/kg, the “dose at which liver necrosis was observed” value [2] was 10 mg/kg and the “degradation under hydrolytic conditions (1H NMR, TLC)” value (Lipidoid hydrolysis) was “degraded to the anticipated alkyl-alcohol product”. The “siRNA distribution within liver (confocal microscopy)” value [3] was “siRNA accumulation throughout nearly all hepatocellular tissue”, the “Relative Luciferase Activity” value [1] was 0.08 and the “siRNA Entrapment” value ([4]; lipid nanoparticle, RiboGreen RNA assay) was 84.2%. For the same compound, the Diameter ([4]; lipid nanoparticle, average effective diameter) was 86.0 nm, the “Zeta Potential” value ([4]; lipid nanoparticle, neutral pH) was 13.7 mV and the pKa ([4]; nanoparticle surface, TNS assay) was 6.8. For the same compound, the “CD45 silencing in immune cells” value (CD45) was “most robust CD45 silencing” and the “albumin, ALT, AST, ALP, total bilirubin, GGT” value (Serum clinical chemistry) was “no toxicologically significant increases”.

For `CCCCCCCCCCC(O)CN(CCN1CCN(CCN(CC(O)CCCCCCCCCC)CC(O)CCCCCCCCCC)CC1)CCN(CC(O)CCCCCCCCCC)CC(O)CCCCCCCCCC` (stereo not shown) [Lipidoid C12-200, reference compound], the “doses at which liver necrosis and inflammation were observed” value [2, 5] was at least 1 mg/kg, the “doses at which pancreatic inflammation and islet cell enlargement were detected” value ([2]; single-dose studies) was at least 2 mg/kg and the “dose at which liver necrosis was observed” value [2] was 7.5 mg/kg. The “serum IL-6, IP-10, KC and MCP-1 levels vs PBS control and 304O13 groups” value (Serum cytokine profiling) was “elevated” and the “albumin, ALT, AST, ALP, total bilirubin, GGT” value (Serum clinical chemistry) was “no toxicologically significant increases”.

With `CCCCCCCCCCCCCCOC(=O)CCN(CCC(=O)OCCCCCCCCCCCCCC)CCC1CCN(CCC(=O)OCCCCCCCCCCCCCC)CC1` [Lipidoid 205O14] the “Relative FVII Activity” value (Factor VII; 5 mg/kg siRNA) was 0.83 and the “Relative Luciferase Activity” value [1] was 0.43.

In the case of `CCCCCCCCCCCCOC(=O)CCN(CCC(=O)OCCCCCCCCCCCC)C[C@@H]1CCCN1CCC(=O)OCCCCCCCCCCCC` [Lipidoid 154O12], the “Relative FVII Activity” value (Factor VII; 5 mg/kg siRNA) is reported as 0.99 and the “Relative Luciferase Activity” value [1] is reported as 0.33.

In the case of `CCCCCCCCCCCCCCOC(=O)CCN(CCC(=O)OCCCCCCCCCCCCCC)[C@@H](CO)[C@H](C)O` [Lipidoid 196O14], the “Relative FVII Activity” value (Factor VII; 5 mg/kg siRNA) is reported as 0.82 and the “Relative Luciferase Activity” value [1] is reported as 0.38.

For `CCCCCCCCCCCCCOC(=O)CCN(CCC(=O)OCCCCCCCCCCCCC)CC1CCCN(C)C1` (stereo not shown) [Lipidoid 235O13], the “Relative FVII Activity” value (Factor VII; 5 mg/kg siRNA) was 0.39 and the “Relative Luciferase Activity” value [1] was 0.42.
